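Growth conditions: 96-well plates. Treatment: test compound, 48 hours, 5 concentrations. Analysis: linear interpolation between bracketing concentrations; unreached endpoints set to highest concentration. GI50: concentration for 50% inhibition of growth. At the TGI there is no net growth.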 A value given as a limit tells only on which side of the number the result lay.

Some test systems named below: HCC-2998 colon; MDA-MB-435; DU-145 prostate; A549 NSCLC; COLO 205 colon; CAKI-1 renal; SW-620 colon; UACC-62 melanoma; SNB-19 CNS; SNB-75 CNS.
Holding throughout (test): NCI tumour cell line growth inhibition, 48 h

`O=C1c2cc3c(cc2-c2c1c1ccc(Cl)cc1c(=O)n2CCCNCCO)OCO3`: the GI50 is 1.15 µM with HCC-2998 colon; 1.03 µM in the assay on MDA-MB-435; 0.059 µM with DU-145 prostate; 0.115 µM in the assay with A549 NSCLC; 1.09 µM in the assay with COLO 205 colon; 0.0684 µM in the assay with CAKI-1 renal. In addition, the GI50 was 0.0506 µM in the assay on SW-620 colon and 0.0427 µM with UACC-62 melanoma. The TGI in the assay on HCC-2998 colon amounted to 2.46 µM; in the assay on MDA-MB-435, 2.49 µM; with DU-145 prostate it was 1.68 µM; in the assay with A549 NSCLC, 2.38 µM; in the assay on COLO 205 colon it was 2.6 µM; in the assay with CAKI-1 renal, 2.29 µM. The TGI in the assay on SW-620 colon worked out at 0.366 µM; in the assay with UACC-62 melanoma, 1.6 µM.

As for `CCC/C(=N/N=C(N)N)c1ccc(NC(=O)c2cc3cc(OC)ccc3[nH]2)cc1`, the GI50 is 13.6 µM in the assay with SNB-19 CNS; 15.1 µM with HCC-2998 colon; 3.81 µM with MDA-MB-435; 3.57 µM in the assay with DU-145 prostate; 2.94 µM in the assay on SNB-75 CNS; 13.1 µM in the assay on A549 NSCLC. Besides, the GI50 in the assay on COLO 205 colon is 9.77 µM; in the assay on SW-620 colon, 3.6 µM; in the assay on UACC-62 melanoma, 14.7 µM. The TGI in the assay with SNB-19 CNS is 35.8 µM; in the assay on HCC-2998 colon it was 39 µM; with MDA-MB-435, 21.7 µM; in the assay on DU-145 prostate, 12 µM; in the assay on SNB-75 CNS, 18 µM; with A549 NSCLC, 38.1 µM. In addition, the TGI was determined as 30 µM in the assay with COLO 205 colon, 20.1 µM in the assay with SW-620 colon and 35 µM in the assay with UACC-62 melanoma.

Consider `O=C1C(Cl)=C(Nc2cccc(Cl)c2)C(=O)N1Cc1ccccc1Cl`, for which the GI50 was 1.01 µM in the assay with MDA-MB-435; 18.2 µM in the assay on DU-145 prostate; 5.48 µM with SNB-75 CNS; 10.2 µM in the assay on A549 NSCLC; 1.68 µM with CAKI-1 renal; 2.82 µM in the assay on SW-620 colon. For the same compound, the GI50 in the assay with UACC-62 melanoma is 3.05 µM. Further, the TGI in the assay with MDA-MB-435 came out at 4.09 µM; with DU-145 prostate it was 38.1 µM; with SNB-75 CNS it was 30 µM; with A549 NSCLC, 26.5 µM; in the assay with CAKI-1 renal, 10.3 µM; in the assay with SW-620 colon, 18.6 µM. The compound also gave a TGI with UACC-62 melanoma of 12.8 µM.

For `Cc1ccc(-n2c3c(c4c(CN(C)C)c(O)ccc42)CCc2ccccc2C3=O)cc1`, the GI50 was over 100 µM with SNB-19 CNS; 12.2 µM in the assay with HCC-2998 colon; 15.2 µM in the assay on MDA-MB-435; 37.3 µM in the assay on DU-145 prostate; 16.7 µM in the assay on A549 NSCLC; over 100 µM with COLO 205 colon. Besides, the GI50 with CAKI-1 renal was 17.2 µM; with SW-620 colon, 15.1 µM; in the assay on UACC-62 melanoma, 17 µM. The TGI was over 100 µM with SNB-19 CNS; 24.9 µM in the assay with HCC-2998 colon; 30.4 µM in the assay on MDA-MB-435; over 100 µM in the assay on DU-145 prostate; 33.8 µM in the assay with A549 NSCLC; over 100 µM in the assay on COLO 205 colon. For the same compound, the TGI in the assay on CAKI-1 renal came out at 44.1 µM; in the assay on SW-620 colon, 33.7 µM; in the assay with UACC-62 melanoma it was 30.9 µM.

With `c1ccc2[nH]c(-c3ccc(NN=Nc4ccncc4)cc3)nc2c1`, the GI50 was over 100 µM in the assay with SNB-19 CNS; 30.7 µM in the assay on MDA-MB-435; 47 µM in the assay with DU-145 prostate; over 100 µM in the assay with SNB-75 CNS; over 100 µM with A549 NSCLC; 27 µM with COLO 205 colon. Further, the GI50 with CAKI-1 renal was 5.2 µM; in the assay with SW-620 colon it was 49.7 µM; in the assay with UACC-62 melanoma, 75.1 µM. Further, the TGI in the assay on SNB-19 CNS, in the assay on MDA-MB-435, with DU-145 prostate, in the assay on SNB-75 CNS, with A549 NSCLC and in the assay with COLO 205 colon was over 100 µM throughout. Moreover, the TGI in the assay on CAKI-1 renal, in the assay on SW-620 colon and with UACC-62 melanoma was over 100 µM in each case.

Consider `O=C(Nc1cccc(Cl)c1)c1ccc(NC2=C(Cl)C(=O)N(Cc3ccccc3)C2=O)cc1`, for which the GI50 with SNB-19 CNS is 21.5 µM; in the assay with HCC-2998 colon, 1.68 µM; in the assay on MDA-MB-435, 9.43 µM; with DU-145 prostate it was 8.37 µM; in the assay on A549 NSCLC, 33.3 µM; in the assay on COLO 205 colon, 22.1 µM. The GI50 in the assay with CAKI-1 renal is 14.7 µM; in the assay with SW-620 colon, 7.4 µM; with UACC-62 melanoma it was 11.6 µM. For the same compound, the TGI is over 59.2 µM with SNB-19 CNS; 3.83 µM with HCC-2998 colon; 33.6 µM with MDA-MB-435; 19.2 µM in the assay on DU-145 prostate; over 100 µM in the assay with A549 NSCLC; over 57 µM in the assay with COLO 205 colon. Moreover, the TGI came out at 50.8 µM in the assay with CAKI-1 renal, 19.7 µM in the assay with SW-620 colon and 25.4 µM in the assay with UACC-62 melanoma.

As for `O=c1ccn(C2OC(CO/N=C/c3ccc(O)c(O)c3O)C(O)C2O)c(=O)[nH]1` (stereo not given), the GI50 with HCC-2998 colon was over 100 µM; with MDA-MB-435, 15.8 µM; with DU-145 prostate it was 17.1 µM; in the assay with SNB-75 CNS, 16.4 µM; with A549 NSCLC it was 54.3 µM; with COLO 205 colon, 14.7 µM. For the same compound, the figures for the GI50 in the assay on CAKI-1 renal, in the assay on SW-620 colon and with UACC-62 melanoma were 49.7 µM, 19.1 µM and 76.4 µM, respectively. Moreover, the TGI in the assay on HCC-2998 colon was over 100 µM; in the assay with MDA-MB-435 it was 31.3 µM; with DU-145 prostate it was 33.2 µM; in the assay on SNB-75 CNS it was 32.2 µM; in the assay on A549 NSCLC it was over 100 µM; in the assay with COLO 205 colon, 30.6 µM. The results for the TGI with CAKI-1 renal, with SW-620 colon and in the assay with UACC-62 melanoma were over 100 µM, 35.9 µM and over 100 µM, respectively.

(Values after PubChem BioAssay (NCI).)
